We go through 24 molecules from PubChem BioAssay (NCI).

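Exposure lasted 48 hours, with cells grown in 96-well plates and compounds tested at five concentrations. TGI marks complete inhibition of growth.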

Assay in all cases: inhibition of tumour cell growth, NCI panel, 48 h
Assay [1] concerns UACC-257 melanoma.
For assay [2], the system named is HOP-92 NSCLC.
Assay [3] relates to 786-0 renal.
Assay [4] has as its system MDA-MB-435.
Assay [5] relates to MDA-N.
Assay [6] has as its system OVCAR-4 ovarian.
In assay [7] the test system is SF-268 CNS.
The test system of assay [8] is SF-539 CNS.
Assay [9] relates to A549 NSCLC.
For assay [10], the system named is COLO 205 colon.
In assay [11] the test system is HOP-62 NSCLC.

Consider `COc1cc(C=C2C(=O)NC(=S)NC2=O)cc(OC)c1OC`, for which the TGI in assay [1], in assay [2], in [3], in assay [4], in assay [5] and in [6] was greater than 100 µM throughout. The TGI in assay [7], in [8], in assay [9], in assay [10] and in [11] was greater than 100 µM throughout.

For the molecule `Cc1cc2nc(-c3cc(C(C)(C)C)c(O)c(C(C)(C)C)c3)[nH]c2cc1C`, the TGI was greater than 100 µM in assay [1]; greater than 100 µM in [2]; 2.73 µM in assay [3]; greater than 100 µM in assay [4]; greater than 44.5 µM in [5]; greater than 23.3 µM in assay [6]. Further, the TGI in assay [7] was greater than 100 µM; in assay [8], greater than 100 µM; in assay [9], 26.3 µM; in assay [10], greater than 100 µM; in [11], greater than 100 µM.

Take `COC(=O)C1OC(O[C@H]2CC[C@]3(C)[C@H]4CC=C5[C@@H]6CC(C)(C)CC[C@]6(C(=O)OC6OCC(O)C(O)C6OC6OC(C)C(OC7OCC(OC8OCC(O)C(O)C8O)C(O)C7O)C(O)C6O)[C@H](O)C[C@@]5(C)[C@]4(C)CC[C@H]3C2(C)C)C(O)C(O)C1O` (some centres undefined): the TGI in assay [1] stood at 13.1 µM; in assay [2], 4.77 µM; in assay [3], 20.2 µM; in [4], 3.58 µM; in assay [5], 3.44 µM; in [6], 21.6 µM. The TGI was 13.9 µM in assay [7]; greater than 100 µM in assay [8]; 9.63 µM in assay [9]; 3.09 µM in assay [10]; 13 µM in assay [11].

For `OCC(O)C(O)C(O)/C=N/Nc1nc(O)c(/C=C2\C=Nc3ccccc32)[nH]1` (centres undefined), the TGI in assay [1], in [2], in assay [3], in assay [4], in [5] and in [6] was greater than 100 µM throughout. In addition, the TGI in assay [7], in [8], in assay [9], in assay [10] and in [11] was greater than 100 µM each time.

On to `CN1COCc2cc3cc4c(cc3nc21)OCCO4`, for which the TGI in assay [1], in assay [2], in [3], in assay [4], in assay [5] and in [6] was greater than 100 µM each time. The TGI in [7], in assay [8], in assay [9], in [10] and in [11] was greater than 100 µM each time.

Take `COC(=O)C1=C(C)NC(C)=C([N+](=O)[O-])C1c1cccc(N=O)c1` (centres undefined): the TGI is 25.1 µM in assay [1]; 12.8 µM in assay [2]; 27.2 µM in [3]; 25.4 µM in assay [4]; 21.6 µM in assay [5]; 24.7 µM in assay [6]. In addition, the TGI worked out at 32 µM in [7]; 30.9 µM in assay [8]; 40.1 µM in [9]; 29 µM in assay [10]; 34.5 µM in assay [11].

`O=C1CS(=O)C23c4cc5ccccc5n4CCC2CCCN13` (centres undefined): the TGI in assay [1], in [2], in assay [3], in assay [4], in [5] and in assay [6] was greater than 100 µM in each case. Further, the TGI in assay [7], in [8], in assay [9], in assay [10] and in [11] was greater than 100 µM in each case.

Take `NS(=O)(=O)c1ccc(NC(NC(=O)C(C(F)(F)F)C(F)(F)F)(C(F)(F)F)C(F)(F)F)cc1`: the TGI in [1], in assay [2], in assay [3], in assay [4], in [5] and in [6] was greater than 100 µM in each case. Also, the TGI in assay [7], in [8], in [9], in assay [10] and in assay [11] was greater than 100 µM each time.

As for `CC12CC1C(c1cccc([N+](=O)[O-])c1)(c1cccc([N+](=O)[O-])c1)N=N2` (centres undefined), the TGI in [1] was greater than 100 µM; in [2], 34.7 µM; in assay [3] it was 52.7 µM; in assay [4], greater than 100 µM; in assay [5] it was 50.5 µM; in [6], 80.3 µM. Also, the TGI is greater than 100 µM in assay [7]; 52.9 µM in [8]; greater than 100 µM in assay [9]; 41.5 µM in [10]; greater than 100 µM in assay [11].

Regarding `Cc1cc(/N=C/c2ccc(C#N)cc2)n(-c2ccccc2)n1`, the TGI in [1], in assay [2], in assay [3], in [4], in assay [5] and in [6] was greater than 100 µM in each case. Moreover, the TGI in assay [7], in assay [8], in assay [9], in assay [10] and in [11] was greater than 100 µM each time.

As to `N#CCCN(CCC#N)c1ccc(/C=C2\SC(=S)NC2=O)cc1Br`, the TGI in assay [1], in [2], in assay [3], in assay [4], in assay [5] and in [6] was greater than 100 µM each time. In addition, the TGI in assay [7] was greater than 100 µM; in assay [8] it was greater than 100 µM; in assay [9], greater than 100 µM; in assay [10], greater than 100 µM; in assay [11], 40.4 µM.

For the molecule `CCOC(CN(C)C(=S)Nc1cccc2ccccc12)OCC`, the TGI in [1], in assay [2], in [3], in assay [4], in assay [5] and in [6] was greater than 10 µM each time. Further, the TGI in assay [7], in [8], in [9], in assay [10] and in assay [11] was greater than 10 µM in each case.

With `O=C(O)c1ccc2c(c1)CC1(C2)Cc2cc3c(cc2C1=O)CCC3` (centres undefined), the TGI in assay [1], in [2], in assay [3], in [4], in assay [5] and in assay [6] was greater than 100 µM throughout. The TGI in assay [7], in assay [8], in [9], in [10] and in assay [11] was greater than 100 µM throughout.

Consider `COc1cc2c(cc1OC)C13CC[N+]4(C)CC5=CCOC6CC(=O)N2C1C6C5CC34[O-]` (centres undefined), for which the TGI in assay [1], in [2], in assay [3], in [4], in assay [5] and in assay [6] was greater than 100 µM each time. Further, the TGI in assay [7], in assay [8], in assay [9], in assay [10] and in [11] was greater than 100 µM throughout.

Regarding `CCCCN(CCCC)C(=C(C(Cl)=C(Cl)Cl)[N+](=O)[O-])N(CCCC)CCCC`, the TGI in [1], in assay [2], in [3], in assay [4], in assay [5] and in assay [6] was greater than 100 µM throughout. Further, the TGI in [7], in assay [8], in assay [9], in assay [10] and in assay [11] was greater than 100 µM throughout.

In the case of `C=C1C(=O)OC2/C=C(/C)C3(O)OC(C)(CC(OC(=O)C(C)C)C12)CC3OC(C)=O` (centres undefined), the TGI in assay [1] is 68 µM; in [2], 40.1 µM; in assay [3] it was greater than 100 µM; in assay [4], greater than 43.8 µM; in [5], 4.94 µM; in assay [6], greater than 65.5 µM. For the same molecule, the TGI is greater than 100 µM in assay [7]; greater than 29.5 µM in [8]; greater than 100 µM in assay [9]; 18.1 µM in [10]; greater than 100 µM in assay [11].

Consider `Cc1ccc(S(=O)(=O)NC(=O)NNc2ccc(F)cc2)cc1`, for which the TGI in [1], in [2], in [3], in assay [4], in [5] and in assay [6] was greater than 100 µM in each case. The TGI in assay [7], in assay [8], in [9], in [10] and in assay [11] was greater than 100 µM in each case.

In the case of `Nc1nc(Nc2ccccc2)sc1C(=O)c1c[nH]c2ccccc12`, the TGI in assay [1] is 22.6 µM; in assay [2], 33.2 µM; in assay [3], 18.2 µM; in assay [4] it was 23.2 µM; in [5] it was 25.3 µM; in [6], 23.5 µM. In addition, the TGI in [7] is 33.8 µM; in [8], 27.4 µM; in assay [9], 23.7 µM; in [10] it was 17.1 µM; in assay [11] it was 30.9 µM.

For `COc1ccc(N=NC(=Nc2ccc(F)cc2)c2ccc(N(CCC#N)CCC#N)cc2)cc1`, the TGI in assay [1] was 70.4 µM; in assay [2], 72.9 µM; in [3], greater than 100 µM; in assay [4] it was greater than 100 µM; in assay [5] it was greater than 100 µM; in [6], greater than 100 µM. The TGI in [7] was greater than 100 µM; in [8], greater than 100 µM; in assay [9], 43.1 µM; in [10] it was greater than 100 µM; in assay [11], greater than 100 µM.

On to `COC(=O)C1(Cc2ccc3c(c2)CCC3)Cc2cc3c(cc2C1)CCC3`, for which the TGI is 62.2 µM in assay [1]; greater than 100 µM in assay [2]; greater than 100 µM in [3]; greater than 100 µM in assay [4]; greater than 100 µM in [5]; 89.3 µM in assay [6]. Also, the TGI in assay [7], in [8], in [9], in [10] and in [11] was greater than 100 µM each time.

As to `OC1(c2ccc(Cl)cc2)c2ccc(CN3CCCC3)cc2C2=NCCN21` (centres undefined), the TGI in assay [1] was found to be 25.1 µM; in assay [2], 16.1 µM; in assay [3], 28.6 µM; in assay [4] it was 23.5 µM; in assay [5] it was 22.8 µM; in assay [6], 25.1 µM. Besides, the TGI was 29.7 µM in assay [7]; 25.9 µM in [8]; 33.3 µM in assay [9]; 22.7 µM in [10]; 29.2 µM in assay [11].

For the molecule `Cc1ccc(-c2c(C#N)c(-c3ccc([N+](=O)[O-])cc3)c(C#N)c(=O)n2NS(=O)(=O)c2ccccc2)cc1`, the TGI was greater than 100 µM in assay [1]; 85.9 µM in assay [2]; greater than 100 µM in assay [3]; greater than 100 µM in assay [4]; greater than 100 µM in [5]; greater than 100 µM in [6]. Besides, the TGI in assay [7], in assay [8], in assay [9], in assay [10] and in [11] was greater than 100 µM in each case.

Regarding `CC/C(Cl)=N\OC(=O)Nc1ccc(F)c([N+](=O)[O-])c1`, the TGI in assay [1] was found to be 35.1 µM; in assay [2], 12 µM; in assay [3], 26.8 µM; in assay [4] it was 33.5 µM; in [5] it was 39.6 µM; in [6] it was 14.7 µM. Also, the TGI in assay [7] is 36.4 µM; in assay [8] it was greater than 100 µM; in assay [9], 43.4 µM; in assay [10] it was 6.58 µM; in assay [11], 35 µM.

As to `Cc1cn2c(C)csc2c1P(=O)(OC(C)C)OC(C)C`, the TGI in [1], in assay [2], in assay [3], in [4], in assay [5] and in assay [6] was greater than 100 µM each time. The TGI in assay [7], in [8], in assay [9], in [10] and in [11] was greater than 100 µM each time.
